From ChEMBL document CHEMBL1132989, “A novel macromolecular prodrug concept exploiting endogenous serum albumin as a drug carrier for cancer chemotherapy” (2000) come the findings set out here.

This experiment can be described thus: Dose required for antitumor efficacy tested in vivo against primary kidney tumors in murine renal carcinoma (RENCA). In kind it is functional, Mus musculus.

On to `COc1cccc2c1C(=O)c1c(O)c3c(c(O)c1C2=O)C[C@@](O)(/C(CO)=N/NC(=O)Cc1ccc(N2C(=O)C=CC2=O)cc1)C[C@@H]3OC1CC(C)C(O)C(N)C1.Cl` (stereo partly specified), for which the Dose amounted to 80 mM/kg.
